Measurements reported in patent US7431088B2, “Methods of controlled acidization in a wellbore” (Halliburton Energy Services, Inc., priority 2006, dated 2008).
Counter-ions that a name gives are not always drawn.

Legend:
[1] = for hydrolysis / reaction rate (comparison in words): deionized water, molar ratio of CaCO3
Protocol: In the following examples, various ester hydrolysis reactions were run in the presence of calcium carbonate (CaCO3) to simulate the consumption of filter cake material. The acid evolved in each reaction was measured per unit of time. The acid generated upon hydrolysis was rapidly consumed in a secondary reaction that produced carbon dioxide (CO2). The half-life was secured when half of the CaCO3 was consumed. That is, using PV=nRT, the amount of CaCO3 that would yield approximately 1 liter of CO2 was calculated to be about 4.47 grams. We doubled the amount of CaCO3 (8.94 grams) for the reactions and then calculated the half-life based on the yield of 1 liter of CO2. Unless otherwise specified, all half-life quotations are actually the time required for 4.47 grams of CaCO3 to be consumed.
The following general procedure was used in each of the examples. The closed system reactor shown in FIG. 1 was used to measure the amount of CO2 gas that evolved in each reaction. Water or brine was added to a boiling flask 10, which was heated to 100° C. […] Once the liquid was boiling, a weighed amount of ester was added to flask 10. The amount of ester employed was always in ratio to the water or to the make-up water used to formulate the brine except where commercially available brines were used. Following addition of the ester to the boiling liquid, a reflux condenser 12 was affixed to flask 10. The top of condenser 12 was fixed with an adapter 14 to an inlet tube 18 in a 2-hole rubber stopper 16. The inlet tube 18 was passed through stopper 16, providing a seal. An outlet tube 22 was run from the bottom of a flask 20 to a 1,000 mL graduated cylinder 24. The flask 20 was charged with XP-07 base oil, commercially available from Halliburton Energy Services, Inc. The outlet tube 22 served the purpose of discharging the oil into graduated cylinder 24. The hydrolysis reaction produced acid in flask 10 that reacted with the CaCO3 to produce CO2 gas. The gas displaced the oil in flask 20 into graduated cylinder 24. The rate of CO2 evolution thus could be monitored visually by reading of the amount of oil in graduated cylinder 24 per unit of time.
Solutions containing various esters of lactic acid and of glycerol (i.e., monoacetin, ethyl lactate, triacetin, tripropionin), butyl formate (a control), and BDF-325 diethyleneglycol diformate (a control) in neutral water were prepared and combined with a molar ratio of CaCO3. Hydrolysis reactions were then carried out using the resulting solutions at 100° C. The hydrolysis reactions were monitored, and the half-lives of the esters were compared. The volume of oil displaced by the CO2 gas is plotted as a function of time in FIG. 2. […] The butyl formate to CaCO3 molar ratio was doubled for comparison purposes.
Solutions containing 10 volume % monoacetin, diacetin, and triacetin in deionized water were prepared and combined with a molar ratio of CaCO3. Hydrolysis reactions were then carried out using the resulting solutions at 100° C. The hydrolysis reactions were monitored, and the half-lives of the esters were compared. The volume of oil displaced by the CO2 gas is plotted as a function of time in FIG. 3.

[2] = Solubility of ester in water; type: physicochemical

| hydrolysis / reaction rate (comparison in words) ([1]; 100° C.) | effect of doubling the ester to CaCO3 molar ratio on reaction rate [1] | Structure (SMILES) | also measured |
| --- | --- | --- | --- |
| very similar |  | CC(=O)OCC(O)COC(C)=O [Diacetin] |  |
|  |  | CCOC(=O)C(C)O (stereo not drawn) [Ethyl Lactate] | hydrolysis performance in different aqueous solutions ([1]; 10 volume % in deionized water and various brines, 100° C.): performed consistently |
| very similar |  | CC(=O)OCC(COC(C)=O)OC(C)=O [Triacetin] |  |
| slow reaction rate | surprisingly similar | CCCCOC=O [butyl formate, reference compound] | solubility in water [2]: relative insolubility |
|  |  | CC(=O)OCC(O)CO (stereo not drawn) [Monoacetin] | half-life relative to target ([1]; buffer): within the targeted range |
| faster than that of the butyl formate | doubled its reaction rate | CCCCOC(=O)C(C)O (stereo not drawn) [Butyl lactate] |  |
